Source: patent publication US5770688A, “Method and composition for the treatment of mammalian HIV infection” (GSF-Forschungszentrum fur Umwelt und Gesundheit GmbH, priority 1989, dated 1998)
“Also recorded” adds a separate entry of the source.

Tests used:
[1] = tested on: reverse transcriptase; test: activity of reverse transcriptase in the supernatant of treated, HIV infected cell culture; assay type: cell-based
Procedure: Referring more particularly to FIGS. 1-4, melittin (Seq. ID NO:1) and its specified analogues were tested for their effect on HIV-infected T-lymphoma cells. In this regard the following cell lines were employed in the testing: KE37-1 (uninfected) and KE37-1/111S (infected with HTLV-111β). These infected cells were incubated for a period of seven days under test conditions at a temperature of 37° C. and in the presence of 5% CO2. A culture medium of RPMI 1640 (GIBCO) was employed and was further supplemented with 10% fetal calf serum which contained approximately 100 units of penicillin, 100μ of streptomycin, and approximately 0.25μ fungizone (Amphotericin B) per milliliter. This equals 1 milliliter of antibiotic-antimycotic solution (GIBCO Catalogue No. 043-05240 per 100 ml. of medium.) After a one week incubation period in the presence of various concentrations of the above-identified substances, which were added fresh daily to the medium, the following tests were carried out with the cultures. A first test was conducted for purposes of determining the relative cell concentration as a function of the number of HIV infected cells present by employing an MTT test. […] The optical density (OD) of the solution was determined at=600 nm. […]

[2] = tolerability and clinical investigation of FIV infected cats; assay type: in vivo
Excerpt: In the following series of experiments, two naturally FIV infected cats (M and G) were used. These particular cats were kept for more than one year under constant observation in the Clinic for Internal Medicine at the Veterinary School in Munich, Germany before the onset of melittin (Seq. ID NO:1) treatment. In each cat, FIV infection had been confirmed by detecting an antibody ELISA. In this regard, a test marketed under the tradename PetChek® and which is available from the same company in Portland, Maine was employed. As best seen in FIG. 53. The antibody titer against FIV in both cats was approximately 1:50. As a general matter, the overall physical condition of both cats was good during the observation period. […]
During the experiment it was determined that detectable blood serum levels of melittin (Seq. ID NO:1) of about 5 ng/ml could be detected following an injection of melittin equal to […] a few minutes after injection. […] In vitro data has shown that melittin, after this time interval, is found within the cells where it can be detected in tact for more than 48 hours. […] The quantitative effect of melittin on FIV replication was determined quantitatively by utilizing FIV-PCR employing nested primers from the gag region. Quantification was based upon the determination of amplified product in identical samples which have been amplified after different cycle times. […]

## Gly-Ile-Gly-Ala-Val-Leu-Lys-Val-Leu-Thr-Thr-Gly-Leu-Pro-Ala-Leu-Ile-Ser-Trp-Ile-Lys-Arg-Lys-Arg-Gln-Gln-Amide [melittin]
[1]; 2.5 μg per ml, FIG. 2
  activity of reverse transcriptase (RT%): revert substantially back to zero
[1]; subtoxic concentrations
  activity of reverse transcriptase, in words: inhibition of reverse transcriptase
[2]; 50 to 500 mg/kg s.c. twice weekly, eight weeks
  tolerability / adverse reactions: appeared to tolerate the numerous injections without any clinically noticeable negative reactions; also recorded: no adverse reaction or clinical abnormalities could be observed in either animal
[2]; cat M
  pneumonitis: improved during the melittin treatment
